Experimental data as given in ChEMBL document CHEMBL5226284, “Small Molecule Inhibitors Targeting Biosynthesis of Ceramide, the Central Hub of the Sphingolipid Network” (J Med Chem, 2021).
Values belong to the compound of their own block, whether it stands above or below them.

Key:
Sphingomyelinase C = molecular target: T1, Sphingomyelinase C (Bacillus cereus, UniProt P11889); assay: Inhibition of Bacillus cereus SMaseC
T1 sequence (P11889 whole entry): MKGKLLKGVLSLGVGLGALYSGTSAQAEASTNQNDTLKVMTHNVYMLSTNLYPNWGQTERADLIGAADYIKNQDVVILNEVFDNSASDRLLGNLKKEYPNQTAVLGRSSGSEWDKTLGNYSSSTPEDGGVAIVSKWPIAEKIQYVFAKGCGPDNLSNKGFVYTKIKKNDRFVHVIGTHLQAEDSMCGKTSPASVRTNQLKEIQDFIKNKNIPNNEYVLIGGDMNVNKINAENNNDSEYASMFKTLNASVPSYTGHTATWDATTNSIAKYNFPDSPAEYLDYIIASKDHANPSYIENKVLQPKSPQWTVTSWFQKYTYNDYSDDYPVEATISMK

[1] = Inhibition of rat brain aSMase using HMU-PC as substrate incubated for 3 hrs by fluorescence plate reader assay; type: tissue-based
[2] = molecular target: T2, Sphingomyelin phosphodiesterase 2 (Rattus norvegicus) (UniProt Q9ET64); assay: Inhibition of rat brain microsomes nSMase at 100 uM incubated for 60 mins relative to control; details: Microsome
T2 sequence (whole entry): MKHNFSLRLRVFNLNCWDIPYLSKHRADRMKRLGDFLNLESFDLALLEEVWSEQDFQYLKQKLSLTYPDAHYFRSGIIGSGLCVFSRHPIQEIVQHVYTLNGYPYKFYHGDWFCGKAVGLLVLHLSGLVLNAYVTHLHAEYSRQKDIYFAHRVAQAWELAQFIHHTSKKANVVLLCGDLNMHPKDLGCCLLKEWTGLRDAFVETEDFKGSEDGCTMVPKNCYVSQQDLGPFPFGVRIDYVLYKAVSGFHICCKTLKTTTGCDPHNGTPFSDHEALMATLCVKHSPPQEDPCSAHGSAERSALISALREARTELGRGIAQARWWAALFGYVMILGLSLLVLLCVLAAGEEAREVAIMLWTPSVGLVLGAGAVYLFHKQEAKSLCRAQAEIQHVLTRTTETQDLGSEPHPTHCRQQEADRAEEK

[3] = molecular target: T2, Sphingomyelin phosphodiesterase 2 (Rattus norvegicus); assay: Inhibition of rat brain microsomes nSMase at 100 uM relative to control; details: Microsome
[4] = molecular target: T2, Sphingomyelin phosphodiesterase 2 (Rattus norvegicus); assay: Inhibition of rat brain microsomes nSMase at 350 uM measured after 15 mins relative to control; details: Microsome
Bos taurus = organism: Bos taurus; assay: Inhibition of bovine brain microsomes nSMase measured after 60 mins relative to control; details: Microsome
[5] = molecular target: T3, Ceramide synthase 1 (Homo sapiens) (UniProt P27544); assay: Inhibition of CerS1 (unknown origin) at 10 uM relative to control
T3 sequence (whole entry): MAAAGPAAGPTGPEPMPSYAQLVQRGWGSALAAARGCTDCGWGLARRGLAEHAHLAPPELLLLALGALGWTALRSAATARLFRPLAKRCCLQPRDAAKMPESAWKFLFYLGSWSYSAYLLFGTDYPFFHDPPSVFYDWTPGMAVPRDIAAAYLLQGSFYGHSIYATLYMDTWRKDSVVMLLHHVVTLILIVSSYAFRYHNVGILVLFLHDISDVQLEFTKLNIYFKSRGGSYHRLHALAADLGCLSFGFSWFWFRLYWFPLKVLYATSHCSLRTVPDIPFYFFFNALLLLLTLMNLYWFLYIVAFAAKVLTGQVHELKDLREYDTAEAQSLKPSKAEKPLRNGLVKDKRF

[6] = Inhibition of CerS human HCT-116 cells microsomal fraction assessed as reduction in C16 dihydroceramide synthesis by LC-MS/MS analysis; type: microsomes, Microsome
[7] = Inhibition of CerS human HCT-116 cells microsomal fraction assessed as reduction in C18 dihydroceramide synthesis by LC-MS/MS analysis; type: microsomes, Microsome
[8] = Inhibition of CerS human HCT-116 cells microsomal fraction assessed as reduction in C24 dihydroceramide synthesis by LC-MS/MS analysis; type: microsomes, Microsome
[9] = Inhibition of CerS human HCT-116 cells microsomal fraction assessed as reduction in C24:1 dihydroceramide synthesis by LC-MS/MS analysis; type: microsomes, Microsome
[10] = molecular target: T4, Sphingomyelin phosphodiesterase 2 (Rattus norvegicus, UniProt Q9ET64); assay: Inhibition of rat brain microsomes nSMase; set-up: species or system Microsome
T4 sequence (Q9ET64 whole entry): T2 sequence (whole entry)

[11] = molecular target: Sphingomyelin phosphodiesterase 3 (Homo sapiens) (UniProt Q9NY59); assay: Inhibition of nSMase2 (unknown origin) at 50 uM relative to control
Sequence of Sphingomyelin phosphodiesterase 3 (Homo sapiens) (Q9NY59 whole entry): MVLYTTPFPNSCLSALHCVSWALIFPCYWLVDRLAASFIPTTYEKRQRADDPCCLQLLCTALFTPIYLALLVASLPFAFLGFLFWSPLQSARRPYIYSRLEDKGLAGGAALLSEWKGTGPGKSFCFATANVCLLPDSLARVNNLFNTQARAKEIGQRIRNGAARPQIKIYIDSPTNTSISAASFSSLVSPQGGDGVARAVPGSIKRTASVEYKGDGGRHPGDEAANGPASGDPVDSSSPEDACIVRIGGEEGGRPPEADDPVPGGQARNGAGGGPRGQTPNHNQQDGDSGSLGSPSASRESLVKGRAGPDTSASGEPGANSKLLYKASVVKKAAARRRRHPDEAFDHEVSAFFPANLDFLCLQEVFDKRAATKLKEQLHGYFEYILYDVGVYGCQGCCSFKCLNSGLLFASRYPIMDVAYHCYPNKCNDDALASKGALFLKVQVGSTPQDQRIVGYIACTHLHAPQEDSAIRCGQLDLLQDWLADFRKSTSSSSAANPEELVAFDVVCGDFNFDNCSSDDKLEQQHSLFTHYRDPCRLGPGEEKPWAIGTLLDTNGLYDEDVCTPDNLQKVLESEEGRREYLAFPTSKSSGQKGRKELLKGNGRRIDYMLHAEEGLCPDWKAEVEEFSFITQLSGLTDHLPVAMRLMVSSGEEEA

[12] = Inhibition of rat brain aSMase using HMU-PC as substrate incubated for 3 hrs by fluorescence based analysis; type: tissue-based
[13] = Inhibition of rat brain aSMase; type: tissue-based
[14] = molecular target: Sphingomyelin phosphodiesterase 2 (Mus musculus) (UniProt O70572); assay: Inhibition of nSMase in mouse Splenocyte at 1 uM relative to control; type: cell-based
Sequence of Sphingomyelin phosphodiesterase 2 (Mus musculus) (O70572 whole entry): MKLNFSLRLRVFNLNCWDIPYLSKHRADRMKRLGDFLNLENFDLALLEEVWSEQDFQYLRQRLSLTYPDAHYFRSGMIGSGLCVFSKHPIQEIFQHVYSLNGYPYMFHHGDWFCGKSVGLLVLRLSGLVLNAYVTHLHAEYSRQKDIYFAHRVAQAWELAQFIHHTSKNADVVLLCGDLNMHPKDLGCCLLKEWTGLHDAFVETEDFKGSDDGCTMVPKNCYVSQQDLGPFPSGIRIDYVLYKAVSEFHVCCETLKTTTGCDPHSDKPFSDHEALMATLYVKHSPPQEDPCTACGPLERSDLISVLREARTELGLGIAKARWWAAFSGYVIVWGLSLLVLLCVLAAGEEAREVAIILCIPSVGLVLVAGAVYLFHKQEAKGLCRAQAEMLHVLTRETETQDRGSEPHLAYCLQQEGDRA

[15] = molecular target: T5, Sphingolipid delta(4)-desaturase DES1 (Homo sapiens, UniProt O15121); assay: Inhibition of DES1 in human HGC-27 cell lysates; type: subcellular
T5 sequence (O15121 whole entry): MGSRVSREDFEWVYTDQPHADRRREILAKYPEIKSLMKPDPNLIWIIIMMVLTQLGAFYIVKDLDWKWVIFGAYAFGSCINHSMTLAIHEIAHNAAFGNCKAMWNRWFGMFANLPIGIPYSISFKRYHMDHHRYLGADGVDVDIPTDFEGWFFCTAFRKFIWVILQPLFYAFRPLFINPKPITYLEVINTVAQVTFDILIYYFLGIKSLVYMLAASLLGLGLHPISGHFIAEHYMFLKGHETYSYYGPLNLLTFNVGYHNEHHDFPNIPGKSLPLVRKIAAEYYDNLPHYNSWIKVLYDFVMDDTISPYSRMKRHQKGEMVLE

[16] = molecular target: Ceramide synthase 6 (Homo sapiens) (UniProt Q6ZMG9); assay: Inhibition of CerS6 (unknown origin) at 10 uM relative to control
Sequence of Ceramide synthase 6 (Homo sapiens) (Q6ZMG9 whole entry): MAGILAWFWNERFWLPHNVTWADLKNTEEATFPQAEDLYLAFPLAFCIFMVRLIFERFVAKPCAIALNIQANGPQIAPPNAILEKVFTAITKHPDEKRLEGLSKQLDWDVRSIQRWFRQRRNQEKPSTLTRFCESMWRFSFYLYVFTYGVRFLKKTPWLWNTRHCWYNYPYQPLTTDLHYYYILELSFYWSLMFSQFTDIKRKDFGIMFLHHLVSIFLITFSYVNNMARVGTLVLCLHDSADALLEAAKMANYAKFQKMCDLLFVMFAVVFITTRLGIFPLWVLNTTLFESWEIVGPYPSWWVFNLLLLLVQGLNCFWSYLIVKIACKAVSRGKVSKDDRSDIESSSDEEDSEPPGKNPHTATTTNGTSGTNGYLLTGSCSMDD

[17] = molecular target: Ceramide synthase 5 (Homo sapiens) (UniProt Q8N5B7); assay: Inhibition of CerS5 (unknown origin) at 10 uM relative to control
Sequence of Ceramide synthase 5 (Homo sapiens) (Q8N5B7 whole entry): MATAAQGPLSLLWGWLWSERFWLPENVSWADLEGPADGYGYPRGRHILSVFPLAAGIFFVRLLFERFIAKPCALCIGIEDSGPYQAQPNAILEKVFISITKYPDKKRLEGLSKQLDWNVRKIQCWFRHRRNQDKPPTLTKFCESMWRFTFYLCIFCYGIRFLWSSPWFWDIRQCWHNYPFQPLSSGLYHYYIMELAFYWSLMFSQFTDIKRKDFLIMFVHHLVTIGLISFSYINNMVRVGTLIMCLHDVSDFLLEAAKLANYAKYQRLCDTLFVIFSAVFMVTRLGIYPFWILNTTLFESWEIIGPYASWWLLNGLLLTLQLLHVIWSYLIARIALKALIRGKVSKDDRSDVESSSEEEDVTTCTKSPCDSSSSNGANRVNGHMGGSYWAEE

HEK293 = assay: Competitive inhibition of CerS in HEK293 cells at 10 uM relative to control; type: cell-based; details: Homo sapiens
[18] = molecular target: T2, Sphingomyelin phosphodiesterase 2 (Rattus norvegicus); assay: Inhibition of rat brain microsomes nSMase at 200 uM measured after 90 mins relative to control; details: Microsome

Structure (SMILES): CCCCCCC[C@@H](O)[C@H](CC(F)(F)P(=O)([O-])OCC[N+](C)(C)C)NC(=O)CCCCC
IC50 (Sphingomyelinase C): 57 µM

Structure (SMILES): C/C=C/C=C/C(=O)N[C@@H](CO)[C@H]1C=C(CCCCCC)C(=O)O1
inhibition [4]: 50% | inhibition (Bos taurus): 90%

Structure (SMILES): CCCCCCCOc1ccc(CCC(CO)(CO)NC(=O)CCCc2ccccc2)cc1
IC50 [6]: 50.4 µM | IC50 [7]: 26.9 µM | IC50 [8]: 81.3 µM | IC50 [9]: 61.3 µM

Structure (SMILES): CCCCCCC[C@@H](O)[C@H](CCP(=O)([O-])OCC[N+](C)(C)C)NC(=O)CCCCC
IC50 (Sphingomyelinase C): 120 µM

Structure (SMILES): C[C@@](N)(CO)CCc1ccc(OCc2ccccc2)cc1
inhibition [5]: 76%

Structure (SMILES): CCCCCCC[C@@H](O)[C@H](CNP(=O)([O-])OCC[N+](C)(C)C)NC(=O)CCCCC
IC50 (Sphingomyelinase C): 53 µM

Structure (SMILES): CC(C)(O)C(O)Cc1cc(O)ccc1O (stereo not drawn)
IC50 [10]: 34 µM

Structure (SMILES): CCCCCCOS(=O)(=O)O[C@@H]1[C@H](O)[C@H](OP(=O)(O)O)[C@@H](O)[C@H](OP(=O)(O)O)[C@H]1O
IC50 [12]: 43 µM

Structure (SMILES): COc1ccc2oc(-c3cc(Br)cc4c3OCOC4)c(N)c(=O)c2c1
IC50 [13]: 3.1 µM

Structure (SMILES): COC(C)(C)/C=C/c1cc(O)ccc1O
IC50 [10]: 16 µM

Structure (SMILES): N=C(N)N/N=C/c1ccc(Oc2cccc(OCc3ccccc3)c2)cc1
inhibition [14]: 80%

Structure (SMILES): CCCCCCC[C@@H](O)[C@H](CCCP(=O)([O-])OCC[N+](C)(C)C)NC(=O)CCCCC
IC50 (Sphingomyelinase C): 78 µM

Structure (SMILES): CCCCCCCCCCC/C=C/CC[C@@H](O)[C@H](CO)NC(=O)CCCCCCC
IC50 [15]: 0.155 µM

Structure (SMILES): CCCCCCCCCCCC(O)(P(=O)(O)O)P(=O)(O)O
IC50 [1]: 0.07 µM

Structure (SMILES): CCCCCCCCCC(=O)N[C@H](CO)C(=O)NC1=CC2(CO2)C(=O)C=C1 (stereo partly drawn)
inhibition [18]: 80%

Now from value to compound, other results behind:

IC50 [1]: 0.08 µM
Structure (SMILES): CCCCCCCCCC(O)(P(=O)(O)O)P(=O)(O)O

inhibition [2]: 88% | inhibition [3]: 10%
Structure (SMILES): CCCCCCCCCCCC(=O)NC1=CC(=O)[C@H]2O[C@H]2C1=O

inhibition [5]: 16%
Structure (SMILES): CCCCOc1ccc(CC[C@](C)(N)CO)cc1

IC50 [1]: 0.04 µM
Structure (SMILES): CCCCCCCC(N)(P(=O)(O)O)P(=O)(O)O

inhibition [2]: 98% | inhibition [3]: 90%
Structure (SMILES): CC(C)C/C=C/C=C/C(=O)NC1=CC(=O)[C@H]2O[C@H]2C1=O

inhibition [11]: 60%
Structure (SMILES): CN1c2ccc(OC(=O)Nc3ccccc3)nc2[C@]2(C)CCO[C@H]12

inhibition [3]: > 90%
Structure (SMILES): COc1c(O)c(C)c(C/C=C(\C)CC/C=C(\C)CC/C=C(\C)CC/C=C(\C)CC/C=C(\C)CCC=C(C)C)c(O)c1OC

IC50 [12]: > 100 µM
Structure (SMILES): CCOS(=O)(=O)O[C@@H]1[C@H](O)[C@H](OP(=O)(O)O)[C@@H](O)[C@H](OP(=O)(O)O)[C@H]1O

inhibition [5]: > 90% | inhibition [16]: 50% | inhibition [17]: 50%
Structure (SMILES): CCCCCCCOc1ccc(CC[C@](C)(N)CO)cc1
inhibition (HEK293): 50%
